Source: patent publication US6825166B2 (priority 2001, dated 2004)

Assays:
Assay type in all cases: cell-based
[1] = tested on: Lu-1 (human lung cancer cell lines); test: Cytotoxicity (sulforhodamine B growth assay), Protocol A, Lu cells; conditions: 62.5-250 μg/ml added on day of plating, replenished every 3 days
Procedure: (§1) The cell lines selected were KB (human epidermoid carcinoma in the mouth, ATCC #CCL-17), Lu-1 (human lung cancer cell lines, obtained from the Department of Surgical Oncology, University of Illinois, College of Medicine), and hTERT (telomerase-immortalized normal epithelial cell line, Clontech #C4000-1). Various doses of the compounds were evaluated under two treatment protocols. In Protocol A, cultures of each of the KB, Lu and hTERT cells were treated with various doses of the three conjugate compounds from the day of culture onward. In Protocol B, cultures of each of the KB, Lu and hTERT cells were grown to confluence (9 days), and then treated with various doses of the Transferrin-7-paclitaxel conjugate for the duration of the experiment.
(§2) KB was cultured in DMEM (GIBCO) supplemented with 10% fetal bovine serum (FBS), 100 units/ml penicillin G, 100 μg/ml streptomycin sulfate, 0.25 μg/ml amphotericin B (Fungizone) (PSF) (GIBCO) and 1% non-essential amino acids (NAA) (Sigma). Lu was maintained in MEME (GIBCO) supplemented with 10% FBS, PSF, and 1% NAA. hTERT-RPE1 was maintained in DMEM/F-12 (GIBCO) supplemented with 10% FBS+PSF. All cell lines were cultured at 37° C. in 100% humidity with a 5% CO2 atmosphere in air.
(§3) The overall procedures were those as described by Skehan et al., New calorimetric cytotoxicity assay for anticancer-drug screening, J. Natl. Cancer Inst. 82:1107-1112, 1990, and Likhitwitayawuid et al., Cytotoxic and antimalarial bisbenzylisoquinoline alkaloids from Stephania erecta. J. Nat. Prod. 56:30-38, 1993. Cells were typically grown to 60-70% confluence, the medium was changed, and the cells were used for test procedures one day later. Test samples were initially dissolved in sterilized PBS. Serial dilutions were performed using PBS as the solvent, and 10 μl were added to the three wells. PBS (10 μl) was added to control groups. […] The plates were placed on a shaker for 5 minutes, and the absorption was determined at 515 nm using an ELISA plate reader. […]

[2] = tested on: hTERT (telomerase-immortalized normal epithelial cell line); test: Cytotoxicity (sulforhodamine B growth assay), Protocol A, hTERT cells; conditions: 62.5-250 μg/ml added on day of plating, replenished every 3 days
Procedure: as §1, §2, §3

[3] = tested on: KB (human epidermoid carcinoma in the mouth); test: Cytotoxicity (sulforhodamine B growth assay), Protocol A, KB cells; conditions: for effect on cell growth (optical density versus time): 62.5-250 μg/ml added on day of plating, replenished every 3 days
Procedure: as §1, §2
(§4) The overall procedures were those as described by Skehan et al., New calorimetric cytotoxicity assay for anticancer-drug screening, J. Natl. Cancer Inst. 82:1107-1112, 1990, and Likhitwitayawuid et al., Cytotoxic and antimalarial bisbenzylisoquinoline alkaloids from Stephania erecta. J. Nat. Prod. 56:30-38, 1993. Cells were typically grown to 60-70% confluence, the medium was changed, and the cells were used for test procedures one day later. Test samples were initially dissolved in sterilized PBS. Serial dilutions were performed using PBS as the solvent, and 10 μl were added to the three wells. PBS (10 μl) was added to control groups. After the plates were prepared, cells were removed from the tissue culture flasks by treatment with trypsin, enumerated, and diluted with fresh media. KB (3×10^4 cells/ml), Lu (5×10^4 cell/ml) and hTERT-RPE1 (4×10^4 cells/ml) cells (in 190 μl of media) were added to the 96-well plates. The plates were incubated at 37° C. in 5% CO2, the cells fixed by addition of 100 μl of cold 20% trichloroacetic acid and incubated at 4° C. for 30 min. The plates were washed with tap water (3×) and dried overnight. The fixed cells were stained 30 min by the addition of 100 μl of 0.4% sulforhodamine B (w/v) dissolved in 1% acetic acid. The plates were washed with 1% acetic acid (3×) and allowed to dry. The bound dye was solubilized by the addition of 10 mM unbuffered Tris base, pH 10 (200 μl/well). The plates were placed on a shaker for 5 minutes, and the absorption was determined at 515 nm using an ELISA plate reader. In each case, a zero-day control was performed by adding an equivalent number of cells to several wells of the 96-well plates and incubating at 37° C. for a period of 30 min. The cells were then fixed with tichloroacetic acid and processed as described above.
The first series of studies were conducted with the Transferrin-3-cholesterol conjugate, the Transferrin-rhodamine123 conjugate and the Transferrin-7-paclitaxel conjugate following Protocol A, in which various concentrations of test compounds ranging from 62.5-250 μg/ml were added on the day of plating, and media were replenished every 3 days, maintaining the same concentrations of the test compounds. As shown by plotting optical density versus time, the Transferrin-3-cholesterol conjugate and the Transferrin-rhodamine123 conjugate were not active with any of the cell lines (FIGS. 5, 6, 8, 9, 11, 12).
Therefore, the experiment was repeated with the Transferrin-7-paclitaxel conjugate with lower concentrations.

[4] = tested on: Lu-1 (human lung cancer cell lines); test: Cytotoxicity (sulforhodamine B growth assay), Protocol B (confluent cultures), Lu cells; conditions: Lu cells grown 9 days before treatment
Procedure: as §1, §2, §3

[5] = tested on: hTERT (telomerase-immortalized normal epithelial cell line); test: Cytotoxicity (sulforhodamine B growth assay), Protocol B (confluent cultures), hTERT cells; conditions: for effect on cell growth: hTERT cells grown 9 days before treatment
Procedure: as §1, §2, §4

[6] = tested on: KB (human epidermoid carcinoma in the mouth); test: Cytotoxicity (sulforhodamine B growth assay), Protocol B (confluent cultures), KB cells; conditions: KB cells grown 9 days before treatment
Procedure: as §1, §2, §3

Row | Substance | effect on cell growth (optical density versus time) [1] | effect on cell growth (optical density versus time) [2] | effect on cell growth (optical density versus time) [3] | effect on cell number (reduction relative to that at 50 μg/ml) ([4]; 0.5 μg/ml) | effect on cell number (reduction relative to that at 50 μg/ml) ([4]; 5 μg/ml) | effect on cell number ([4]; 50 μg/ml) | selectivity: cancer cells (KB and Lu) versus normal cells (hTERT) ([5]; conclusion from KB, Lu and hTERT results) | effect on cell growth ([5]; 0.5 μg/ml) | effect on cell growth ([5]; 5 μg/ml) | effect on cell growth ([5]; 50 μg/ml) | cell number on day 16 ([5]; hTERT cells, 50 μg/ml, day 16 versus day 9) | effect on cell growth ([3]; 0.5 μg/ml) | effect on cell growth ([3]; 5 μg/ml) | effect on cell growth ([3]; 50 μg/ml) | effect on cell number ([6]; 0.5 μg/ml) | effect on cell number ([6]; 5 μg/ml) | effect on cell number ([6]; 50 μg/ml)
1 | Transferrin-3-cholesterol conjugate: 3-acyl-pentanal cholesterol linked with Transferrin; non-cytotoxic molecule control conjugate | not active | not active | not active | – | – | – | – | – | – | – | – | – | – | – | – | – | –
2 | Transferrin-7-paclitaxel conjugate: 7-acyl-pentanal paclitaxel linked to Transferrin through Schiff base; 3 paclitaxel per Transferrin | complete inhibition of cell growth | complete inhibition of cell growth | complete inhibition of cell growth | negated | diminished | significant reduction in cell number | primarily targeting cancer cells (KB and Lu) while not significantly affecting normal cells (hTERT) | Slight increases in cell growth | Slight increases in cell growth | growth was diminished | approximately the same as on day 9 | no effect on growth | complete growth inhibition | complete growth inhibition | cell number paralleled that of the control | significant reduction in cell number | significant reduction in cell number
3 | Transferrin-rhodamine123 conjugate: rhodamine123 linked to Transferrin using glutaraldehyde as a linker between free amino groups | not active | not active | not active | – | – | – | – | – | – | – | – | – | – | – | – | – | –
